Numbers after ± are expanded uncertainties.
Details: 298.15 K; 101.33 kPa; Liquid

Compound	mass density
COC(C)(C)C [2-methoxy-2-methylpropane]	735.99 ± 0.86 kg/m3
CC1CCCO1 (centres undefined) [2-methyltetrahydrofuran]	848.1 ± 0.73 kg/m3
C1CCOC1 [tetrahydrofuran]	882.09 ± 0.64 kg/m3
CCCCCCCC [octane]	698.73 ± 0.86 kg/m3

From the NIST ThermoML archive (doi:10.1016/j.jct.2005.07.017)
